From patent publication US20170035824A1, “USAGE OF OBLONGIFOLIN C, A NATURAL COMPOUND FROM GARCINIA YUNNANENSIS HU, ON TREATING CANCER AS METASTASIS INHIBITOR AND AUTOPHAGIC FLUX INHIBITOR” (Hong Kong Baptist University, priority 2013, published 2017)
Structures can show the parent of a compound that is named as a salt.

Experiments:
HeLa cells xenograft = assay: Anti-cancer activity in vivo, cervical cancer xenograft; set-up: species or system BALB/c nude mice; conditions: for tumor size versus vehicle treated mice: HeLa xenograft, intratumoral once every 2 days, seven injections, OC 12 μg, Etopside 4 μg
Method: Four weeks old nude mice were engrafted with HeLa cells and observed until tumors reached ˜100 mm^3. Tumor-bearing mice were then treated vehicle, OC (12 μg) or Etopside (4 μg) […] by intratumoral once every 2 days for a total of seven injections. Mice were killed and tumors resected and weighed 2 days after the final injection.
Four-week-old BALB/c nude mice were purchased from the Experimental Animal
Center of Chinese Academy of Science (Shanghai, China) and kept in pathogen free environment at Experimental Animal Center in Shanghai University of Traditional Chinese Medicine. The mice have an average weight of 20 g. Approximately 2×10^6 HeLa cells were injected into the left and right sides of the animals. Two weeks later, 15 mice bearing tumors around 100 mm^3 in volume were randomly divided into vehicle control, etoposide (positive control) and oblongifolin C-treated groups. The mice were administered via intratumoral injection at the dose of 4 μg etopside or 12 μg OC in 200 μl solvent (0.05% DMSO, 0.05% Tween-80 in PBS) once every two days for two weeks. The tumor size was measured over a period of two weeks.

[1] = literature background; cited from earlier work
[2] = tested on: HeLa cells stably expressing GFP-LC3; assay: Live cell imaging and colocalization analysis (GFP-LC3 / LysoTracker Red); type: cell-based; conditions: OC 15 μM or HCQ 50 μM, 8 hours, FIG. 11
Method: Live cell images of GFP-LC3 and LysoTracker Red were taken using Olympus confocal microscope. The enlarged images show the colocalization of two signals.
(§1) For lysotracker staining, HeLa or MEF cells grown on coverslips were stained with 50 nM Lysotracker Red DND-99 (Molecular Probes, Invitrogen, L7528) in pre-warmed medium for 20 min at 37° C. All of the samples were examined under an Olympus FV1000 confocal microscope (Olympus) equipped with a 63×oil immersion objective. The confocal images were acquired using FV10-ASW 2.0 software. Calculation of Pearson's correlation coefficient (PCC) was applied to quantify colocalization. PCC was calculated by FV10-ASW 2.0 software between the stack of images from two channels.

MEF cells = assay: Western blot for endogenous LC3 / SQSTM1; type: cell-based, mouse
Method: (§2) GAPDH was used as a loading control. An image J densitometric analysis of the LC3-II/GAPDH ratio from LC3 immunoblots was shown.
(§3) Samples were analyzed by western blotting for endogenous SQSTM1 and GAPDH. An image J densitometric analysis of the SQSTM1/GAPDH ratio from immunoblots was shown.
(§4) Cells were lysed in ice-cold whole cell extract buffer (50 mM pH8.0 Tris-HCl, 4M urea and 1% TritonX-100), supplemented with complete protease inhibitor mixture (Roche Diagnostics, 04693132001). Cell extracts were resolved by SDS-PAGE gel electrophoresis and transferred to a nitrocellulose membrane. After blocking with 5% non-fat milk in Tris-buffered saline containing 0.2% Tween-20, the membranes were probed with the following antibodies: LC3B (sigma, L7543), SQSTM1/p62 (MBL, PM045), GAPDH (Proteintech, 10494-1-AP), CASP3 (Cell signaling, #9962). Following incubation with horseradish peroxidase coupled secondary anti-mouse (KPL, 074-1806) or anti-rabbit antibodies (KPL, 474-1506), protein bands were visualized using ECL Blotting Detection Reagents (KPL, 54-61-00).

[3] = tested on: lysosomal proteolytic activity; assay: Lysosomal proteolytic activity / autophagic flux; type: cell-based
ECA109 cells [4] = assay: Wound healing assay; type: cell-based, human; conditions: ECA109, 24 hours, FIG. 2
Method: (§5) Human esophageal cancer cell line ECA109 were maintained in RPMI1640 (Gibco/Invitrogen) supplemented with 10% fetal bovine serum (Invitrogen), 100 U/ml penicillin-streptomycin (Gibco/ Invitrogen, 15140-122), within a humidified atmosphere containing 5% CO2 at 37° C.
ECA109 cells were seeded on 12-well plates at a density of 1×10^5 cells/well. After the cells reached sub-confluence, the mono-layer cells were wounded by scraping off the cells and then grown in medium for 24 hours. The migrated distance of cells was monitored and imaged under a microscope.

CNE cells = assay: Flow cytometry (propidium iodide), complete vs nutrient-deprived medium; type: cell-based, human; conditions: OC 5 μM, EBSS vs DMEM, 24 hours, FIG. 13
Method: (§6) The cells were fixed and stained with propidium iodide (PI).
(§7) HeLa, HCT116, CNE, MCF7, MDA-MB-231, HepG2 and MEFs were maintained in Dulbecco's modified Eagle's medium (Gibco/Invitrogen, 12800-017) supplemented with 10% fetal bovine serum 100U/m1 penicillin-streptomycin (Gibco/ Invitrogen, 15140-122) at 37° C. in a humidified 5% CO2 incubator. For nutrient starvation, HeLa or CNE cells cultured in DMEM were washed three times with PBS, then cultured in Earle's Balanced Salt Solution (EBSS, Sigma, E6132) for indicated time point.
(§8) Cells were treated with Oblongifolin C then cultured in complete (DMEM with serum) or nutrient deprived medium (EBSS) for 24 hours. The cells were fixed in 70% ethanol in PBS overnight. For cell cycle distribution, cells were counterstained with propidium iodide and analyzed for DNA content by use of a BD Influx™ flow cytometer.

HeLa-LC3-GFP cells = assay: GFP-LC3 translocation and quantitative analyses; type: cell-based; conditions: OC 5, 10 and 20 μM, 24 hours, FIG. 5 and 6
Excerpt: MEF, HeLa, CNE, HCT116, MCF7 and HepG2 cells were transfected with pEGFP-LC3 plasmid using lipofectamine 2000 (Invitrogen, 11668-019). […] Image acquisition was done using an Olympus FV1000 confocal microscope. The number of GFP-LC3 dots was counted from at least 150 cells from randomly placed positions within each sample.

MEF = assay: Live cell imaging and colocalization analysis (GFP-LC3 / LysoTracker Red); type: cell-based, mouse; conditions: OC 15 μM, 8 hours, FIG. 12
Method: The colocalization of GFP-LC3 and LysoTracker Red were analyzed by confocal microscopy. The enlarged images show the colocalization of two signals.
as §1

ECA109 cells [5] = assay: Transwell assay (cell migration); type: cell-based, human; conditions: ECA109, 24 hours, FIG. 3
Method: as §5
(§9) Cell migration was also determined using a transwell (Corning) with pore size of 8 μm. 5×10^4 cells that were seeded in serum-free medium in the upper chamber, while medium containing 10% FBS in the lower chamber. After incubating for 24 hours at 37° C., cells in the upper chamber were carefully removed with a cotton swab and the cells that had traversed to reverse face of the membrane were fixed in methanol, stained with Giemsa, and counted.

HeLa cells [6] = assay: Flow cytometry (propidium iodide), complete vs nutrient-deprived medium; type: cell-based; conditions: OC 5 μM, EBSS vs DMEM, 24 hours, FIG. 13
Method: as §6, §7, §8

ECA109 cells [7] = assay: Anti-invasion assay (Matrigel assay); type: cell-based, human; conditions: ECA109, 72 hr, FIG. 4
Method: as §5
as §9, with “Cell invasion” for “Cell migration”, “was” for “was also”, “using Matrigel (BD) coated” for “using a”, “for 72 hr” for “for 24 hours”

HeLa cells [8] = assay: Western blot for cleaved Caspase 3 in DMEM or EBSS medium; type: cell-based; conditions: DMEM and EBSS, 24 hours, FIG. 14
Method: Samples were analyzed by western blotting for cleaved Caspase 3, LC3 and SQSTM1. GAPDH was used as a loading control.
as §4, §8

[9] = tested on: human colorectal cancer cell lines; conditions: previous studies (Feng et al. 2012; Huang et al. 2009); cited from earlier work
HeLa cells [10] = assay: Western blot for endogenous LC3 / SQSTM1; type: cell-based
Method: as §2, §3, §4

[11] = tested on: human colon cancer cells (HCT116); assay: GFP-LC3 translocation; type: cell-based; conditions: HCT116, 10 μM, 24 hours, FIG. 7
Method: (§10) MEF, HeLa, CNE, HCT116, MCF7 and HepG2 cells were transfected with pEGFP-LC3 plasmid using lipofectamine 2000 (Invitrogen, 11668-019). One day after transfection, cells were treated with 10 μM Oblongifolin C for 24 hours prior to fixation. Image acquisition was done using an Olympus FV1000 confocal microscope. The number of GFP-LC3 dots was counted from at least 150 cells from randomly placed positions within each sample.

[12] = tested on: mouse embryonic fibroblast cells (MEF); assay: GFP-LC3 translocation; type: cell-based; conditions: 10 μM, 24 hours, FIG. 7
Method: as §10

[13] = tested on: human breast cancer cells (MCF7); assay: GFP-LC3 translocation; type: cell-based; conditions: MCF7, 10 μM, 24 hours, FIG. 7
Method: as §10

[14] = tested on: human nasopharyngeal cancer cells (CNE); assay: GFP-LC3 translocation; type: cell-based; conditions: 10 μM, 24 hours, FIG. 7
Method: as §10

[15] = tested on: human hepatocytes (HepG2); assay: GFP-LC3 translocation; type: cell-based; conditions: HepG2, 10 μM, 24 hours, FIG. 7
Method: as §10

Compound: COc1cc([C@@H]2c3cc4c(cc3[C@@H](O[C@@H]3O[C@@H]5CO[C@@H](C)O[C@H]5[C@H](O)[C@H]3O)[C@H]3COC(=O)[C@H]23)OCO4)cc(OC)c1O [Etop, etoposide, reference compound]
- tumor size versus vehicle treated mice (HeLa cells xenograft): smaller than those of vehicle treated mice

Compound: CC(C)=CCC[C@]1(C)C=Cc2c(O)c3c(c(CC=C(C)C)c2O1)O[C@]12C(=C[C@@H]4C[C@H]1C(C)(C)O[C@@]2(C/C=C(/C)C(=O)O)C4=O)C3=O [GA, gambogic acid]
- toxicity [1]: induces toxicity to the liver and kidney

Compound: CCN(CCO)CCCC(C)Nc1ccnc2cc(Cl)ccc12 (centres unmarked) [HCQ, hydroxychloroquine sulfate, reference compound]
- autophagosome-lysosome fusion (colocalization of GFP-LC3 and LysoTracker Red) [2]: block autophagosome-lysosome fusion

Compound: CC(C)=CCC/C(C)=C/C[C@@H]1C[C@]2(CC=C(C)C)C(=O)[C@@](CC=C(C)C)(C(=O)C(C(=O)c3ccc(O)c(O)c3)=C2O)[C@@]1(C)CCC=C(C)C [Oblongifolin C]
- autophagosome-lysosome fusion (colocalization of GFP-LC3 and LysoTracker Red) [2]: block autophagosome-lysosome fusion
- amount of LC3-II protein (time dependence) (MEF cells; MEF, OC 15 μM, 0, 4, 8, 12 and 24 hours, FIG. 9): increase the amount of LC3-II protein in a time-dependent manner
- amount of LC3-II protein (dose dependence) (MEF cells; MEF, OC 2, 5, 10 and 25 μM, 24 hours, FIG. 8): increase the amount of LC3-II protein in a dose-dependent manner
- amount of LC3-II protein (FIG. 10; autophagic flux) (MEF cells; MEFs, OC 15 μM over a time period, FIG. 10): increase the amount of LC3-II protein in a time-dependent manner
- anticancer effect in cervical cancer xenograft (HeLa cells xenograft; 12 μg OC intratumoral once every two days for two weeks, FIG. 15): anticancer effect similar to etopside
- tumor size versus vehicle treated mice (HeLa cells xenograft): smaller than those of vehicle treated mice
- effective dosage for mouse (HeLa cells xenograft; based on 12 μg given to 20 g mouse): 0.6 mg/kg
- tumor markers in cervical cancer xenograft mouse model (Caspase 3, LC3, SQSTM1, lysosomal cathepsins) (HeLa cells xenograft; cervical cancer xenograft mouse model): increased Casepse 3 cleavage, LC3 and SQSTM1 accumulation, and reduced expression of lysosomal cathepsins
- autophagic flux and lysosomal proteolytic activity [3]: blocks both autophagic flux and lysosomal proteolytic activity
- wound healing (migrated distance of cells) (ECA109 cells [4]): suppressed the wound healing in a concentration dependent manner
- apoptosis of nutrient-deprived cancer cells (CNE cells): sensitizes nutrient-deprived cancer cells to apoptosis
- GFP-LC3 puncta formation (HeLa-LC3-GFP cells): could regulate GFP-LC3 puncta formation at concentration dependent manner
- autophagosome-lysosome fusion (colocalization of GFP-LC3 and LysoTracker Red) (MEF): block autophagosome-lysosome fusion
- cell migration through transwell (ECA109 cells [5]): suppress ECA109 cells migration through transwell at concentration dependent manner
- apoptosis of nutrient-deprived cancer cells (HeLa cells [6]): sensitizes nutrient-deprived cancer cells to apoptosis
- cell invasion through matrigel (ECA109 cells [7]): suppress ECA109 cells invasion through matrigel at a concentration dependent manner
- Caspase 3 cleavage (HeLa cells [8]): resulted in Caspase 3 and cleavage in concentration-dependent manner
- relative potency among PPAP compounds [9]: most potent PPAP compound
- amount of LC3-II protein (FIG. 10; autophagic flux) (HeLa cells [10]; OC 15 μM over a time period, FIG. 10): increase the amount of LC3-II protein in a time-dependent manner
- amount of LC3-II protein (time dependence) (HeLa cells [10]; OC 15 μM, 0, 4, 8, 12 and 24 hours, FIG. 9): increase the amount of LC3-II protein in a time-dependent manner
- amount of LC3-II protein (dose dependence) (HeLa cells [10]; OC 2, 5, 10 and 25 μM, 24 hours, FIG. 8): increase the amount of LC3-II protein in a dose-dependent manner
- GFP-LC3 puncta formation [11]: could regulate GFP-LC3 puncta formation
- GFP-LC3 puncta formation [12]: could regulate GFP-LC3 puncta formation
- GFP-LC3 puncta formation [13]: could regulate GFP-LC3 puncta formation
- GFP-LC3 puncta formation [14]: could regulate GFP-LC3 puncta formation
- GFP-LC3 puncta formation [15]: could regulate GFP-LC3 puncta formation
